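Compound exposure: 48 hours, 5 concentrations, 96-well plates. GI50 = concentration required for 50% inhibition of growth. The concentration for full growth arrest is given as TGI.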
What was measured:
Assay in all cases: inhibition of tumour cell growth, NCI panel, 48 h
CCRF-CEM leukemia = test system: CCRF-CEM leukemia
HCC-2998 colon = test system: HCC-2998 colon
HCT-116 colon = test system: HCT-116 colon
HL-60(TB) leukemia = test system: HL-60(TB) leukemia
HOP-62 NSCLC = test system: HOP-62 NSCLC
HOP-92 NSCLC = test system: HOP-92 NSCLC
HS 578T breast = test system: HS 578T breast
KM12 colon = test system: KM12 colon
MDA-MB-231 breast = test system: MDA-MB-231 breast
SK-MEL-5 melanoma = test system: SK-MEL-5 melanoma

| SMILES | TGI (CCRF-CEM leukemia) [µM] | TGI (HCC-2998 colon) [µM] | TGI (HCT-116 colon) [µM] | TGI (HL-60(TB) leukemia) [µM] | TGI (HOP-62 NSCLC) [µM] | TGI (HOP-92 NSCLC) [µM] | TGI (HS 578T breast) [µM] | TGI (KM12 colon) [µM] | TGI (MDA-MB-231 breast) [µM] | TGI (SK-MEL-5 melanoma) [µM] | GI50 (HL-60(TB) leukemia) [µM] | GI50 (MDA-MB-231 breast) [µM] | GI50 (CCRF-CEM leukemia) [µM] | GI50 (HCC-2998 colon) [µM] | GI50 (HCT-116 colon) [µM] | GI50 (HOP-62 NSCLC) [µM] | GI50 (HOP-92 NSCLC) [µM] | GI50 (HS 578T breast) [µM] | GI50 (KM12 colon) [µM] | GI50 (SK-MEL-5 melanoma) [µM] |
| --- | --- | --- | --- | --- | --- | --- | --- | --- | --- | --- | --- | --- | --- | --- | --- | --- | --- | --- | --- | --- |
| O=c1[nH]c2ccccc2n1CCCN1CCC(n2c(=O)[nH]c3cc(Cl)ccc32)CC1 | > 100 | 30.4 | 31.4 | 37.3 | 36.4 | 58.2 | 49.7 | 30.6 | 37.4 | 29.1 |  |  |  |  |  |  |  |  |  |  |
| O=C1CCC(N2C(=O)c3ccccc3C2=O)C(=O)N1 (stereo unspecified) | > 100 | > 100 | > 100 | > 100 | > 100 | > 100 | > 100 | > 100 | > 100 | > 100 | > 100 | > 100 |  |  |  |  |  |  |  |  |
| COC(=O)C1C(O)C(C)C(O)C(C)C=C(C)C2=C3C(=C(C)C(=O)c4c(O)c(c(C)c(OC(C)=O)c43)NC(=O)C(C)=C/C=C\C(C)C(O)C(C)C1O)OCO2 (stereo unspecified) | 67 | > 100 | > 100 | 41.6 | > 100 | > 100 | > 100 | 99.6 | 77.6 | 39.4 |  |  |  |  |  |  |  |  |  |  |
| S=c1nc(N/N=C/c2ccco2)c2cn[nH]c2[nH]1 | > 100 | 88.7 | > 100 | > 100 | > 100 | > 100 | > 100 | > 100 | > 100 | > 100 | 77.1 | > 100 | 2.2 | 22.4 | 25 | > 100 | 71.4 | 42.5 | 24.7 | 28.2 |
| CCN(c1cc(-c2ccc(CN3CCOCC3)cc2)cc(C(=O)NCc2c(C)cc(C)[nH]c2=O)c1C)C1CCOCC1 | > 85.4 | 49.7 | 40.3 | 56.2 | 99.2 | > 57 | > 71.2 | 52 | 44.7 | 31.7 | 17.5 | 20.4 | 30.6 | 20.4 | 18.5 | 30.7 | 16.8 | 22.2 | 19.7 | 16.3 |
| C#Cc1nc2ccccc2c(=O)[nH]1 | 0.721 | 3.11 | 0.716 | 0.807 | 5.64 | 2.61 | 7.12 | 2.94 | 1.49 | 2.01 | 0.26 | 0.318 | 0.237 | 1.6 | 0.247 | 1.95 | 1.14 | 1.69 | 1.39 | 0.633 |
| COc1ccc(-c2nc(-c3nc4ccc(F)cc4[nH]3)c3ccccn23)cc1 | > 100 | > 100 | 17.8 | > 100 | 32.3 | 43.8 | > 100 | > 100 | 30.4 | 6.71 | 39.8 | 4.34 | 4.39 | 6.59 | 3.61 | 7.41 | 3.67 | 8.54 | 7.03 | 2.2 |
| COc1ccc(C(O)c2cc3c(N)c(C(=O)Nc4cccc(Cl)c4)sc3nc2C)cc1 (stereo unspecified) | > 100 | > 35.9 | > 33.1 | 2.78 | 19.9 | > 39.9 |  | > 33.4 | > 33.1 | > 32 | 0.868 | 1.41 | 1.13 | 1.76 | 0.921 | 0.617 | 3.66 | 0.825 | 1.1 | 1.17 |
| O=c1cc(N/N=C/c2ccc(F)cc2)c2cc(Cl)ccc2[nH]1 | > 100 | > 100 | > 100 | 50.9 | > 100 | 45.9 | > 100 | > 100 | 51.7 | 14.1 | 18.8 | 16 | 12 | 32.4 | 17.4 | 20.7 | 14 | 25.3 | 22 | 3.54 |
| Cc1c2cc(Cl)c3ccccc3c2c[n+]2ccccc12 | 26.3 | 17.8 | 32.9 | 55.3 | 16.1 | 27.4 | 11.9 | 9.31 | 39.8 | 2.92 | 19.2 | 11.9 | 3.36 | 4.22 | 7.2 | 2.24 | 2.04 | 1.12 | 1.95 | 1.22 |
| Cc1c2c(c(C)c3c4c(oc13)CCCC4)C=NCC2 | 29.4 | 36.1 | 35.9 | 43.4 | 60.6 | 25.4 | 53 | 33 | 32.9 | 30.8 |  |  |  |  |  |  |  |  |  |  |
| Cc1nc2ccc(NC(=O)CCNC(=O)CCCc3ccc(CC(C(=O)O)C(=O)O)cc3)cc2s1 | > 100 | > 100 | > 100 | > 100 | > 100 | > 100 | > 100 | > 100 | > 100 | > 100 | > 100 | > 100 | > 100 | > 100 | > 100 | > 100 | > 100 | > 100 | > 100 | > 100 |
| c1ccc(-c2nc(N3CCOCC3)c3c4c(sc3n2)CCCCCC4)nc1 | 18.9 | 19.8 | 15.3 | 22.8 | 24.6 | 5.05 | 42.3 | 16.1 | 25.9 | 9.45 | 4.49 | 7.43 | 3.59 | 6.99 | 3.69 | 9.53 | 0.622 | 3.37 | 4.28 | 1.99 |
| CC(C)Cc1ccc(C(C)CC2=CCC(CN(C)C)C2=O)cc1 (stereo unspecified) | 12.6 | 17 | 11.1 | 4.47 | 36.4 | 8.41 | 40.6 | 10.7 | 22.5 | 28.9 |  |  |  |  |  |  |  |  |  |  |
| COc1cc2c(cc1O)CC1c3c(cc(O)c(OC)c3-2)CCN1C (stereo unspecified) | > 100 | > 100 | > 100 | > 100 | > 100 | > 100 | > 100 | > 100 | > 100 | > 100 |  |  |  |  |  |  |  |  |  |  |
| COc1ccc(C(=O)NNc2nc(Cl)nc(N3CCN(C(c4ccccc4)c4ccccc4)CC3)n2)cc1 | 4.12 | 2.89 | 3.22 | 10.5 | 10.7 | 3.55 | 4.76 | > 100 | 3.68 | 31.7 | 2.54 | 1.94 | 1.25 | 1.49 | 1.74 | 2.97 | 1.61 | 1.95 | > 100 | 16.7 |
